# Experiments:
# CTSS = biological target: T1, CTSS (Homo sapiens, UniProt P25774); assay: Kinetic evaluation of recombinant cathepsin inhibition, fluorogenic substrate Z-FR-AMC; format: biochemical
# T1 construct: made in house
# Description: (§1) Cathepsin (0.4 nM, CatK) or 5 nM (CatS, CatB, and CatL) were each mixed with inhibitors before adding the fluorogenic substrate. The proteases were then reacted with their substrates, Z-RR-AMC (CatL) or Z-FR-AMC (CatS, CatB, and CatK), for 30 min at 37 °C in the phosphate buffer (100 mM Na2HPO4/NaH2PO4, 50 mM NaCl, 5 mM DTT, 0.1% PEG-6000, at pH 6). Reactions were done in 96-well black flat-bottom microplates (Greiner, Germany); fluorescence (Ex/Em 370 and 460 nm) was measured by a Tecan INFINITE M1000 pro plate reader (Tecan, Switzerland) in the presence of inhibitors or vehicle. For irreversible inhibitors, reaction data were analyzed by using the one-phase association formula in GraphPad Prism 9 software: Y = Y0 + (plateau – Y0) × (1 – exp(−K × X)), where Y0 and Y denote the fluorescence signals at times 0 and t, respectively, K represents the observed reaction rate kobs, and X signifies the […]. The inactivation rates at each inhibitor concentration were determined by subtracting the inactivation observed in the control sample: kobs – kctrl. The maximum inactivation rate (kinact) was derived as the asymptote from the equation Y = kinact × X/(Ki^app + X), where X represents the inhibitor concentration, Y is the observed inactivation rate for each X, and Ki^app is the apparent inhibition constant. Ki values were derived from IC50 or Ki^app using the equations Ki = Ki^app/(1 + […]) and IC50 = E0/2 + Ki^app, where Km represents the Michaelis–Menten constant, S denotes substrate concentration, and E0 indicates cathepsin concentration. The maximum inhibitor dose in the experiment was 50 μM. Measurements were conducted in multiple independent duplicates. Average values are listed.
# CTSK = biological target: T2, CTSK (Homo sapiens, UniProt P43235); assay: as above; format: biochemical; conditions: for Ki: irreversible inhibitors
# T2 construct: made in house
# T2 sequence (P43235 115-329): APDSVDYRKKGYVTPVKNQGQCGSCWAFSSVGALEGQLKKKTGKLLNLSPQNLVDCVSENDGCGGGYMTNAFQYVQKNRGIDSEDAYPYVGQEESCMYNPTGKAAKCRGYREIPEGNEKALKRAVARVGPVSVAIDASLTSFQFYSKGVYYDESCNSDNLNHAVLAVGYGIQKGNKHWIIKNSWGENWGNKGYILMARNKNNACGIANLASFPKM
# Description: as §1
# human osteoclasts = assay: Cell viability assay (methylene blue); format: cell-based; conditions: different concentrations, 48 h
# Description: […]
# Cell viability assay: U2-OS, U-87 MG, or enriched monocyte cells were grown at 37 0C with 5% of CO2 in the respective medium as described previously. Cells were seeded (1500 cells/well in 96 wells plate) one day before the incubation with indicated inhibitor s at various concentrations. After 48 h, cells were fixed, and viability was measured by quantita tive colorimetric assay using methylene blue according to the procedure reported by Ben -Bassat et al.9 The data were expressed as a percentage of control; data represent the mean of 2 experiments with triplicates for each treatment (± standard deviation).
# Figure S10. Cell viability assay. a) U2-OS and, b) U-87 MG were incubated with the different concentrations of indicated inhibitors. After a 48 h incubation cells were fixed, and viability was measured by methylene blue assay.The data were expressed as a percentage of control; data represent the mean of 2 experiments with triplicates for each treatment (± SD). Statistical differences were evaluated by two -tailed Student’s t -test from two independent experiments.
# Student’s t -test was non-significant except for samples indicated with *, P <0.05 and **, P <0.01. (c) Human osteoclasts were incubated with the different concentrations of indicated inhibitors. After a 48 h incubation cells were fixed, and viability was measured by methylene […]
# (also on this page, place not known: t-test non -significant t-test 0 20 40 60 80 100 120 (0.5 µM)(5 µM)(1 µM)(5 µM)(1 µM) (0.5 µM) ODNGD38GD38GD38GD20GD20GD20 (0.5 µM) Cell viability (% of control) Concentration of compound) […]
# (1 picture or pasted object on this page, not shown here)
# [1] = biological target: T3, endogenous matured CTSK in intact U2-OS and U-87 MG cells (Homo sapiens, UniProt P43235); assay: Competition assay in intact cells, GB123 labeling; format: cell-based; conditions: escalating doses
# T3 construct: endogenous in cells; host or cells: U2-OS and U-87 MG
# T3 sequence (P43235 115-329): T2 sequence (P43235 115-329)
# Description: Two cell lines, human osteosarcoma U2-OS and human glioblastoma U-87 MG, that naturally express CTSK along with other lysosomal cathepsins, were chosen to evaluate the inhibitors’ potency and selectivity.[43],[44] First, the intact cells were incubated for various durations with escalating doses of the inhibitors, and the ODN was used as a control. The residual cathepsin activity in the cells was detected by adding a pan-cathepsin ABP, GB123, after which the cells were lysed. The probe-labeled enzymes were then separated and visualized using fluorescent SDS-PAGE (Figures 5a,b and S7).[45] In both cells, the activity of several cathepsins was detected, while the fluorescent band at approximately 25 kDa was correlated to CTSK by immunoblotting (shown below in Figure 5a, b). The identity of each labeled band was detected by immunoblotting (Figure S7).[45] A selective dose-dependent suppression of CTSK activity was obtained in a range of inhibitor concentrations.
# Figure 5 Direct inhibition of endogenous matured CTSK in intact U2-OS and U-87 MG cells. (a) Intact U2-OS cells were treated with DMSO, ODN, or increasing concentrations of the inhibitors GD20 or GD38 in their culture medium for 2 h. Cells were then treated with GB123 (5 μM) for 2 h, lysed, and separated by SDS-PAGE, followed by fluorescent scanning of the gel using a Typhoon scanner at 635/670 nm. An immunoblot of CTSK of the same gel is presented below. Different cathepsins are marked by colored arrowheads; a red arrowhead marks mature CTSK. s. ch. = single chain, h. ch. = heavy chain.[45] (b) Intact U-87 MG cells were treated with the inhibitor, followed by GB123, as described in panel (a).
# U-87 MG and U2-0S cells (5 × 10^5 cells/well) were seeded in a six-well plate 1 day before treatment. […] Proteins were quantified by bicinchoninic acid (BCA, Thermo Scientific); an equal quantity of proteins was prepared for all samples, and after the addition of sample buffer, the lysates were boiled for 10 min, centrifuged, and separated by 12.5% SDS-PAGE. […]
# T1 sequence (P25774 115-331): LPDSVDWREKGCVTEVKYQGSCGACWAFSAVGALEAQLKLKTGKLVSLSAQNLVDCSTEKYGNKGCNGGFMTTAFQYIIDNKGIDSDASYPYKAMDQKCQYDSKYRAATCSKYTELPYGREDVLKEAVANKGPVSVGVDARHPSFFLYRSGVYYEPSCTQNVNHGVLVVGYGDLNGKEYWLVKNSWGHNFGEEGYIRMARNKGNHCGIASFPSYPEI
"type of inhibition, CTSS (CTSS)",Ki (CTSS; reversible) [nM],"type of inhibition, CTSK (CTSK)",IC50 (CTSK; reversible (tight binding)) [nM],Ki (CTSS; maximum inhibitor dose 50 μM) [nM],kinact (CTSK) [s⁻¹],kinact/KI (CTSK) [M⁻¹ s⁻¹],Ki (CTSK) [nM],kinact (CTSS) [s⁻¹],kinact/KI (CTSS) [M⁻¹ s⁻¹],Ki (CTSS; irreversible inhibitor) [nM],Compound,cell viability (% of control) vs control (human osteoclasts),"inhibition of CTSK and selectivity over other cathepsins in intact cells, in words [1]"
reversible,136,reversible (tight binding),0.942,–,–,–,–,–,–,–,"CC(C)(F)C[C@H](N[C@@H](c1ccc(-c2ccc(S(C)(=O)=O)cc2)cc1)C(F)(F)F)C(=O)NC1(C#N)CC1 [ODN, odanacatib, reference compound]",no significant differences,could not detect
–,–,irreversible,–,> 50000,0.0026,232000,13,–,–,–,CC(C)C[C@H](N[C@@H](c1ccc(-c2ccc(S(C)(=O)=O)cc2)cc1)C(F)(F)F)C(=O)NCC(=O)COC(=O)[C@@H]1CCCN1C(=O)[C@H](CC(C)C)NC(=O)OCC1c2ccccc2-c2ccccc21 [GD20],no significant differences,very selective at all concentrations tested
irreversible,–,irreversible,–,–,0.0032,230000,20.9,0.009,178,62000,CC(C)C[C@H](N[C@@H](c1ccc(-c2ccc(S(C)(=O)=O)cc2)cc1)C(F)(F)F)C(=O)NCC(=O)COC(=O)[C@@H]1CCCN1C(=O)[C@H](CCC(N)=O)NC(=O)OCC1c2ccccc2-c2ccccc21 [GD38],no significant differences,slightly reduced the activity of other cathepsins at high concentrations and longer incubation times

# Reference: article PMC11938014, “Development and Application of Small Molecule–Peptide Conjugates as Cathepsin K-Specific Covalent Irreversible Inhibitors in Human Osteoclast and Lung Cancer” (JACS Au, 2025)
